Measurements as given in patent US20020031782A1, “Mycobacterium tuberculosis CYP51 high resolution structure, polypeptides and nucleic acids, and therapeutic and screening methods relating to same” (priority 1999, published 2002).
Where two headings read alike, the source gives them in different places.

Assays:
[1] = biological target: T1, MT P45014DM (Mycobacterium tuberculosis, UniProt P9WPP9); experiment: biochemical; assay type: binding; set-up: DNA segments encoding full length proteins preferably have a coding length on the order of about 1353 nucleotides; made in house; host or cells: E. coli HMS174, vector pet17b; conditions: for Kd: type I substrate-induced difference spectrum, 10 μM MT P45014DM, read-out: Ks value (binding constant), substrate
T1 sequence (P9WPP9 1-451): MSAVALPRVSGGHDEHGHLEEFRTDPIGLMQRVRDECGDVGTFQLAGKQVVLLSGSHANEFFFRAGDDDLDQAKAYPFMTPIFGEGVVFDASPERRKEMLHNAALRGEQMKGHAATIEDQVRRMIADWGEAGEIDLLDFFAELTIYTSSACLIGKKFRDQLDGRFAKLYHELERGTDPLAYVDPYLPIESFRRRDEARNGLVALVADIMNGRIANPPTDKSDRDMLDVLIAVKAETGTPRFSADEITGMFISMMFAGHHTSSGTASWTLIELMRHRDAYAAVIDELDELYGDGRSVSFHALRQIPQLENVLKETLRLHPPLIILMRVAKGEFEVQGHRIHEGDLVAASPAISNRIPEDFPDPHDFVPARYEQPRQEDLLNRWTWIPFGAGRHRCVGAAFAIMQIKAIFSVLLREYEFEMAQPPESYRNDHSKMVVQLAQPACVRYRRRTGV

[2] = biological target: T1, MT P45014DM; experiment: Reconstituted catalytic activity: sterol 14α-demethylation by MT P45014DM; assay type: biochemical; set-up: DNA segments encoding full length proteins preferably have a coding length on the order of about 1353 nucleotides; made in house; host or cells: E. coli HMS174, vector pet17b
[3] = system: MT H37RA; experiment: Effect of azole inhibitors on growth of MT; assay type: cell-based, Mycobacterium tuberculosis
Protocol: The characterization of the CYP51 enzyme of the present invention in MT leads to the analysis of the function of this enzyme in the disease tuberculosis and of whether this enzyme represents a new drug target for the treatment of tuberculosis. Particularly, the effects of three azole inhibitors on the growth of MT H37RA, an alternated strain of MTH37R which is the pathogenic strain whose genomic sequence was determined by Cole et al., (1998) Nature […]:537-544 (bacterial strains provided by Dr. Dean Crick at Colorado State University) were examined.
As contemplated by applicants in accordance with the present invention, it was observed that ketoconazole has a profound effect on the growth of MT, stopping growth at about a 25 μM concentration. […] The targeting of ketoconazole to P45014DM in MT also leads to the identification of additional specific azole inhibitors which have far greater specificity for the MT CYP45014DM enzyme as compared to the human CYP45014DM enzyme. Such inhibitors therefore will have fewer side effects than less specific inhibitors. Thus, as described above, a method of screening for highly specific inhibitors of MT CYP45014DM in accordance with the screening methods described herein above comprises another aspect of the present invention.

[4] = biological target: T1, MT P45014DM; experiment: biochemical; assay type: binding; set-up: DNA segments encoding full length proteins preferably have a coding length on the order of about 1353 nucleotides; made in house; host or cells: E. coli HMS174, vector pet17b
[5] = biological target: maize microsomes; conditions: Salmon et al. 1992; read-out: binding constant estimated for maize microsomes; cited from earlier work
[6] = biological target: T1, MT P45014DM; conditions: compared to 100% determined by sodium hydrosulfite
[7] = biological target: T2, cholesterol side chain cleavage P450 (SCC) (Bos taurus, UniProt P00189); experiment: CO-based reduction of cholesterol side chain cleavage P450 by electron donor (control); assay type: biochemical, bovine; conditions: compared to 100% determined by sodium hydrosulfite
T2 sequence (P00189 40-520): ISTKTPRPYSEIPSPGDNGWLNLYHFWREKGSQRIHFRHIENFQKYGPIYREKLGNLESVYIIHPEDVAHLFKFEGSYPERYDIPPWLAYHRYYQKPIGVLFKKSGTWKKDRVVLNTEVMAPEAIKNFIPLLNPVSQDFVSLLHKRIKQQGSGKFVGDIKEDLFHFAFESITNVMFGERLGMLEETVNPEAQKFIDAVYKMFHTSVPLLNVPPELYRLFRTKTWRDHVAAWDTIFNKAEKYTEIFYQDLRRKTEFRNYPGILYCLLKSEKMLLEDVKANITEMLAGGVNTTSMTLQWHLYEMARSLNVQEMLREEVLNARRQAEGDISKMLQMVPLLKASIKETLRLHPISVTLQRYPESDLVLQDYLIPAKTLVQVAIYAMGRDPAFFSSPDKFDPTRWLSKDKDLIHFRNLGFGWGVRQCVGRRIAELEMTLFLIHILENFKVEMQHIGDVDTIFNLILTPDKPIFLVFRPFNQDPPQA

[8] = biological target: T3, bovine 17α-hydroxylase P450 (bC17) (Bos taurus, UniProt P05185); experiment: CO-based reduction of 17α-hydroxylase P450 by electron donors (control); assay type: biochemical; conditions: compared to 100% determined by sodium hydrosulfite
T3 sequence (P05185 1-509): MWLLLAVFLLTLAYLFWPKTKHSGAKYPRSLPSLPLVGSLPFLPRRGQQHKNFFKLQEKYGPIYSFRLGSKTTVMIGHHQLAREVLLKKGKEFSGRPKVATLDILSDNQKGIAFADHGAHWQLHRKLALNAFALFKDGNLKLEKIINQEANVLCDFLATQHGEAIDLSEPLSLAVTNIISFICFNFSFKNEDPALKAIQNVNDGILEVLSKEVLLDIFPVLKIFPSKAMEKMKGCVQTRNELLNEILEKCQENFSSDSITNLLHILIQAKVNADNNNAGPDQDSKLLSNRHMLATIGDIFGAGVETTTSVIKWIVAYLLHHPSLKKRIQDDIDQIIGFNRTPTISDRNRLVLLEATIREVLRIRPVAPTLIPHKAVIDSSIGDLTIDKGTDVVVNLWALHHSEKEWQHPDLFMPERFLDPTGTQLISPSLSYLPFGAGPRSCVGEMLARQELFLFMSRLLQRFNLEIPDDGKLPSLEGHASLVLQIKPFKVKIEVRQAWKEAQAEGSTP

In the case of CC(C)=CCC[C@@H](C)[C@H]1CC[C@@]2(C)[C@@H]3CC[C@H]4C(C)(C)[C@@H](O)CC[C@@]45C[C@@]35CC[C@]12C [cycloartenol], the “sterol binding to the enzyme (yes/no)” value [1] is reported as “Neither parkeol, cycloartenol, nor zymosterol (FIG. 3A) were found to bind”.

In the case of CC(C)=CCC[C@@H](C)[C@H]1CC[C@@]2(C)C3=C(CC[C@]12C)[C@@]1(C)CC[C@H](O)C(C)(C)[C@@H]1CC3 [lanosterol], the “sterol binding to the enzyme (yes/no)” value [1] is reported as “binds”, the Kd [1] is reported as about 1000 nM and the “Total product recovered from the quenched reaction mixtures” value (from here on “Total product recovered”) [2] is reported as 1%.

In the case of CC(C)CCC[C@@H](C)[C@H]1CC[C@@]2(C)C3=C(CC[C@]12C)[C@@]1(C)CC[C@H](O)C(C)(C)[C@@H]1CC3 [DHL, 24,25-dihydrolanosterol], the “sterol binding to the enzyme (yes/no)” value [1] is reported as “binds”, the Kd [1] is reported as about 1000 nM and the “Total product recovered” value [2] is reported as 20%.

In the case of CC(=O)N1CCN(c2ccc(OCC3COC(Cn4ccnc4)(c4ccc(Cl)cc4Cl)O3)cc2)CC1 (stereo not shown) [ketoconazole], the “concentration stopping growth of MT” value [3] is reported as about 25 µM, the “inhibition of the 14α-demethylation of DHL” value [2] is reported as “inhibit” and the Kd [4] is reported as about 5000 nM. For the same molecule, the Kd [5] was 10000 nM.

In the case of C=C(CC[C@@H](C)[C@H]1CC[C@@]2(C)C3=C(CC[C@]12C)[C@@]1(C)CC[C@H](O)[C@@H](C)[C@@H]1CC3)C(C)C [obtusifoliol], the “sterol binding to the enzyme (yes/no)” value [1] is reported as “binds”, the Kd [1] is reported as 350 ± 150 nM and the “Total product recovered” value [2] is reported as 98%.

In the case of C=C(CC[C@@H](C)[C@H]1CC[C@@]2(C)C3=C(CC[C@]12C)[C@@]1(C)CC[C@H](O)C(C)(C)[C@@H]1CC3)C(C)C [24-methylene-dihydrolanosterol], the “sterol binding to the enzyme (yes/no)” value [1] is reported as “did not bind”.

With CC(C)=CCC[C@@H](C)[C@H]1CC[C@@]2(C)[C@@H]3CC[C@H]4C(C)(C)[C@@H](O)CC[C@]4(C)C3=CC[C@]12C [parkeol] the “sterol binding to the enzyme (yes/no)” value [1] was “Neither parkeol, cycloartenol, nor zymosterol (FIG. 3A) were found to bind”.

For CC(C)=CCC[C@@H](C)[C@H]1CC[C@H]2C3=C(CC[C@]12C)[C@@]1(C)CC[C@H](O)C[C@@H]1CC3 [zymosterol, 4,4,14-tridesmethyl lanosterol], the “sterol binding to the enzyme (yes/no)” value [1] was “Neither parkeol, cycloartenol, nor zymosterol (FIG. 3A) were found to bind”.

B1: Adx/Adr: bovine adrenodoxin/adrenodoxin reductase electron donor system (protein, UniProt P00257 59-186; P08165 33-492, looked up)
Adrenodoxin, mitochondrial: SSSEDKITVHFINRDGETLTTKGKIGDSLLDVVVQNNLDIDGFGACEGTLACSTCHLIFEQHIFEKLEAITDEENDMLDLAYGLTDRSRLGCQICLTKAMDNMTVRVPDAVSDARESIDMGMNSSKIE
NADPH:adrenodoxin …: STQEQTPQICVVGSGPAGFYTAQHLLKHHSRAHVDIYEKQLVPFGLVRFGVAPDHPEVKNVINTFTQTARSDRCAFYGNVEVGRDVTVQELQDAYHAVVLSYGAEDHQALDIPGEELPGVFSARAFVGWYNGLPENRELAPDLSCDTAVILGQGNVALDVARILLTPPDHLEKTDITEAALGALRQSRVKTVWIVGRRGPLQVAFTIKELREMIQLPGTRPMLDPADFLGLQDRIKEAARPRKRLMELLLRTATEKPGVEEAARRASASRAWGLRFFRSPQQVLPSPDGRRAAGIRLAVTRLEGIGEATRAVPTGDVEDLPCGLVLSSIGYKSRPIDPSVPFDPKLGVVPNMEGRVVDVPGLYCSGWVKRGPTGVITTTMTDSFLTGQILLQDLKAGHLPSGPRPGSAFIKALLDSRGVWPVSFSDWEKLDAEEVSRGQASGKPREKLLDPQEMLRLLGH
modifications: two-protein electron donor system
For B1, the “reduction of MT P45014DM (reduced-CO spectrum)” value [6] was “n.r” and the “reduction of SCC (reduced-CO spectrum)” value [7] was 80%.

B2: Fld/Fdr: E. coli flavodoxin/flavodoxin reductase two-component electron donor system (protein, UniProt P61949 2-176; P28861 2-248, looked up)
Flavodoxin 1: AITGIFFGSDTGNTENIAKMIQKQLGKDVADVHDIAKSSKEDLEAYDILLLGIPTWYYGEAQCDWDDFFPTLEEIDFNGKLVALFGCGDQEDYAEYFCDALGTIRDIIEPRGATIVGHWPTAGYHFEASKGLADDDHFVGLAIDEDRQPELTAERVEKWVKQISEELHLDEILNA
Flavodoxin/ferredoxin--NADP …: ADWVTGKVTKVQNWTDALFSLTVHAPVLPFTAGQFTKLGLEIDGERVQRAYSYVNSPDNPDLEFYLVTVPDGKLSPRLAALKPGDEVQVVSEAAGFFVLDEVPHCETLWMLATGTAIGPYLSILQLGKDLDRFKNLVLVHAARYAADLSYLPLMQELEKRYEGKLRIQTVVSRETAAGSLTGRIPALIESGELESTIGLPMNKETSHVMLCGNPQMVRDTQQLLKETRQMTKHLRRRPGHMTAEHYW
For B2, the “reduction of bC17 (reduced-CO spectrum)” value [8] was 77%.

B3: rat P450 reductase: rat microsomal NADPH cytochrome P450 reductase (protein, UniProt P00388 2-678, looked up)
NADPH--cytochrome P450 …: GDSHEDTSATMPEAVAEEVSLFSTTDMVLFSLIVGVLTYWFIFRKKKEEIPEFSKIQTTAPPVKESSFVEKMKKTGRNIIVFYGSQTGTAEEFANRLSKDAHRYGMRGMSADPEEYDLADLSSLPEIDKSLVVFCMATYGEGDPTDNAQDFYDWLQETDVDLTGVKFAVFGLGNKTYEHFNAMGKYVDQRLEQLGAQRIFELGLGDDDGNLEEDFITWREQFWPAVCEFFGVEATGEESSIRQYELVVHEDMDVAKVYTGEMGRLKSYENQKPPFDAKNPFLAAVTANRKLNQGTERHLMHLELDISDSKIRYESGDHVAVYPANDSALVNQIGEILGADLDVIMSLNNLDEESNKKHPFPCPTTYRTALTYYLDITNPPRTNVLYELAQYASEPSEQEHLHKMASSSGEGKELYLSWVVEARRHILAILQDYPSLRPPIDHLCELLPRLQARYYSIASSSKVHPNSVHICAVAVEYEAKSGRVNKGVATSWLRAKEPAGENGGRALVPMFVRKSQFRLPFKSTTPVIMVGPGTGIAPFMGFIQERAWLREQGKEVGETLLYYGCRRSDEDYLYREELARFHKDGALTQLNVAFSREQAHKVYVQHLLKRDREHLWKLIHEGGAHIYVCGDARNMAKDVQNTFYDIVAEFGPMEHTQAVDYVKKLMTKGRYSLDVWS
For B3, the “reduction of MT P45014DM (reduced-CO spectrum)” value [6] was “n.r” and the “reduction of bC17 (reduced-CO spectrum)” value [8] was 73%.
